The values that follow come from paper PMC11187126, “Structure and dynamics of the pyroglutamylated RF-amide peptide QRFP receptor GPR103” (Nature Communications, 2024).

Read-outs that look alike come from different tables or passages of the source. No end group written: not given here.

As usually defined, the EC50 is the concentration at which the effect is half-maximal. A high value points to weaker potency.

This assay has as its target T1, GPR103 F11N-termA (Homo sapiens, UniProt Q96P65, F11A).
T1 construct: we used human full-length QRFPR-encoding plasmids; expressed in transfected cells; host or cells: HEK293 cells, pCAGGS vector
T1 sequence (Q96P65 1-431 F11A): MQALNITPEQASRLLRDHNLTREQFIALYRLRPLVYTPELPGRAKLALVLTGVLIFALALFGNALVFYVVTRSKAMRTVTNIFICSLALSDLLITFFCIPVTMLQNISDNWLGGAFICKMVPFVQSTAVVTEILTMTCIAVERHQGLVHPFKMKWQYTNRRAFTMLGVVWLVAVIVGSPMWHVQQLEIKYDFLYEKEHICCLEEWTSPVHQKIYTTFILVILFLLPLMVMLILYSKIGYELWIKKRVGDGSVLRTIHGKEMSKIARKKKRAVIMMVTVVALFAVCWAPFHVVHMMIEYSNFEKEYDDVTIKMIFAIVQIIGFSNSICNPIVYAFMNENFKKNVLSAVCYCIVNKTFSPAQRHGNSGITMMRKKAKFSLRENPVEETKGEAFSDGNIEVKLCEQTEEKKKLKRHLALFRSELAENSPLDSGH
As to the kind of experiment: TGFα shedding assay; Exp. level WT (1:10). The assay is classed as cell-based. How it is done:
For the TGFα shedding assay and the flow cytometry analysis, we used human full-length QRFPR-encoding plasmids. Specifically, GPR103 was N-terminally modified with an HA signal sequence followed by a FLAG epitope and then a flexible linker ([…]; the FLAG epitope is underlined) and inserted into the pCAGGS vector. Plasmid encoding GPR103 mutants were generated using Quickchange Site-Directed Mutagensis kit (Agilent).
The TGFα shedding assay was performed as described previously with minor modifications. Plasmid transfection was performed in a 6-well plate with a mixture of 500 ng (per well in a 6-well plate) AP-TGFα-encoding plasmid and 200 ng GPR103-encoding plasmid. After 1-day culture, the transfected cells were harvested by trypsinization, pelleted by centrifugation at 190 × g for 5 min, and washed once with 5 mM HEPES (pH 7.4)-containing Hank’s Balanced Salt Solution (HBSS). After centrifugation, the cells were resuspended in 8 mL of the HEPES-containing HBSS. The cell suspension was seeded in a 96-well culture plate (cell plate) at a volume of 90 μL (per well hereafter) and incubated in a 37 °C incubator with 5% CO2 for 30 min. […] After spinning the cell plates at 190 × g for 2 min, 80 μL of conditioned media was transferred to an empty 96-well plate (conditioned media (CM) plate). Then, 80 μL of AP reaction solution (10 mM p-nitrophenylphosphate (p-NPP), 120 mM Tris-HCl (pH 9.5), 40 mM NaCl, and 10 mM MgCl2) was dispensed into the cell plates and the CM plates. Absorbance at 405 nm of the plates was measured using a microplate reader (SpectraMax 340 PC384, Molecular Devices) before and after 1-h incubation at room temperature. Ligand-induced AP-TGFα release was calculated by subtracting spontaneous AP-TGFα release signal from ligand-induced AP-TGFα release signal. The AP-TGFα release signals were fitted to a four-parameter sigmoidal concentration–response curve, using the Prism 10 software (GraphPad Prism). For each replicate experiment, the pEC50 parameter (negative logarithmic values of EC50 values) of the individual GPR103 mutants were normalized to that of the wild-type GPR103 performed in parallel, and resulting ∆pEC50 values were used to denote ligand response activity of the mutants. […]
Exp. le vel: WT (1:5 0)Exp. le vel: WT (1:5 0)Exp. le vel: WT (1:5 0)Exp. le vel: WT (1:2 0)Exp. le vel: WT (1:2 0)Exp. le vel: WT (1:1 0) […]
L1 4N - t e r mA F2 5N - t e r mA I 2 6N - t e r mA Y 2 9N - t e r mA C 9 82 .5 7A T10 22 .6 1A Exp . l eve l: WT (1 :5)Exp . l evel : >WT (1 :1)Exp. le vel: WT (1:2 0)Exp. le vel: WT (1:2 0)Exp. le vel: WT (1:5 0)Exp . l eve l: WT (1 :1) […]
Exp. le vel: WT (1:1 0)Exp. le vel: WT (1:2 0) C 1 1 83 .2 5AExp. le vel: WT (1:5 0)Exp. le vel: WT (1:5 0)Exp. le vel: WT (1:2 0)Exp . l eve l: WT (1 :5) […]
Exp. le vel: WT (1:5 0)Exp. le vel: WT (1:1 0)Exp. le vel: WT (1:5 0) E203ECL2AExp . l evel : >WT (1 :1)Exp. le vel: WT (1:5 0)Exp. le vel: WT (1:5 0) […]
Exp . l eve l: WT (1 :1) F28Exp. le vel: WT (1:5 0) C 2 8 56 .4 7AExp. le vel: WT (1:2 0) WExp. le vel: WT (1:2 0) F28Exp. le vel: WT (1:5 0)Exp . l evel : >WT (1 :1) […]
Exp. le vel: WT (1:5 0)Exp. le vel: WT (1:5 0) C 3 2 77 .4 8AExp . l eve l: WT (1 :5)Exp . l evel : >WT (1 :1)Exp . l evel : >WT (1 :1) […]
Suppl eme nt ary Figure 1 | Mutational analysis of GPR103. […]
mutants. Data are presented as mean values ± SEM, normally n=3-5; dots), each performed in triplicate. b-d Cell-surface expression (b) and QRFP26-in-duced activation of GPR103 (c, d) were analyzed by the flow cytometry and the TGFα shedding assay, respectively. From the concentration–response curves (a), Emax (c) and ΔpEC50 (d) values relative to the wild type were calculated. Colors in the mutant bars indicate an expression level matching to that of titrated wild type. Statistical analyses were performed using the ordinary one-way ANOVA followed by Dunnett tests with the expression-matched […]

Turning to TSGPLGNLAEELNGYSRKKGGFSFRF-NH2 [QRFP26], the Emax turned out to be 103.83 % WT (Exp. #1); 92.88 % WT (Exp. #2); 104.15 % WT (Exp. #3); 100% (mean, read-out: Emax); 104 ± 3% (n = 3, read-out: Emax). For the same substance, the response (n = 3) was half-maximal at 178 nM (EC50).
